The values that follow come from article PMC11581978, “Paenilamicins are context-specific translocation inhibitors of protein synthesis” (Nature Chemical Biology, 2024).

Assay [1] deals with EF-G-dependent translocation on the ribosome. The assay can be described thus: Translocation assay (toeprinting, MFKAFK template). The assay is classed as biochemical. The settings on record: EF-G present; tRNAfMet in P-site, N-AcPhe-tRNAPhe in A-site; in duplicate. The procedure: Translocation assays were performed as previously described[22] using the MFKAFK template[45] (Supplementary Table 2). Reactions were prepared by incubating tight-coupled ribosomes (0.7 µM) with mRNA (0.5 µM) and tRNAi^Met (1 µM) for 20 min at 37 °C in the Pure System Buffer (5 mM potassium phosphate (pH 7.3), 9 mM Mg(OAc)2, 95 mM potassium glutamate, 5 mM NH4Cl, 0.5 mM CaCl2, 1 mM spermidine, 8 mM putrescine and 1 mM dithiothreitol) and for additional 10 min at 37 °C with 2 μM of N-acetyl-Phe-tRNA^Phe. At the time of N-acetyl-Phe-tRNA^Phe addition, the reactions were supplemented with PamB2 or negamycin as specified. The translocation reaction was initiated by addition of 1 µl of EF-G–GTP mixture (1.2 µM and 3.2 mM). After 5 min of incubation at 30 °C, 2 µl of reverse transcriptase and/or dNTPs mixture was added. The reactions were stopped after another 5 min at 30 °C by addition of 200 µl of the stop buffer and subsequent phenol extraction. The obtained complementary DNA was precipitated in ethanol for subsequent gel electrophoresis.

For assay [2] the test system is unchanged. Further details: method as in PMID 25306922. The settings on record: cited from earlier work.
For assay [3], the system named is ribosomes translating ErmBL mRNA. The assay can be described thus: Toeprinting on ErmBL mRNA templates (Figs. 4a and 5c). The settings on record: for ribosome stalling on wildtype ErmBL mRNA: mupirocin present, in duplicate. Type of assay: biochemical, E. coli. How it is done: Toeprinting reactions for Figs. 4a and 5c were performed as described previously. Briefly, reactions were performed with 5 μl of PURExpress in vitro protein synthesis system. The reactions contained 0.1 pmol of the respective DNA template (Supplementary Table 2) and were supplemented with retapamulin, erythromycin, mupirocin or PamB2 as specified. The transcription–translation reactions were incubated 20 min at 37 °C. Subsequently, reverse transcription was performed for 10 min at 37 °C using AMV RT and the radiolabeled NV*1-primer. Reactions were stopped by the addition of 1 µl of 10 M NaOH and then neutralized with 0.8 µl of concentrated HCl. Subsequently, 200 µl of the stop buffer (0.3 M sodium acetate (pH 5.5), 5 mM EDTA and 0.5% SDS) was added and phenol extraction was performed. The obtained complementary DNA was precipitated in ethanol for subsequent gel electrophoresis.

In assay [4] the test system is Escherichia coli in vitro translation. The following applies: well-known translation inhibitors; read-out: IC50; cited from earlier work. From the text:
The accordance of structural features of paenilamicins with the translation inhibitor edeine (Extended Data Fig. 1c) led to the hypothesis that paenilamicins may also exert their antimicrobial activity by binding to the ribosome and inhibiting protein synthesis. […] The best understood context-specific translation inhibitors are those that target the large subunit, where their inhibitory action is influenced by the sequence of the nascent polypeptide chain being synthesized, for example, macrolides and ketolides[30]–[32] ...

Assay [5] concerns E. coli ribosomes translating MLIFstop-mRNA. The assay can be described thus: Toeprinting assay on MLIFstop-mRNA. Type of assay: biochemical. The settings on record: 100 µM, positive control, toeprinting in duplicate. From the text: To investigate how paenilamicins inhibit translation, we generated PamB2-stalled ribosome complexes (PamB2-SRC) for single-particle cryo-EM analysis. Rather than forming complexes on vacant ribosomes, or with predefined functional states, we instead aimed to use more physiological complexes where translating ribosomes become stalled by PamB2. To achieve this, we performed in vitro translation reactions with E. coli ribosomes using the Met-Leu-Ile-Phe-stop-mRNA (MLIFstop-mRNA), a model template that we had previously used to successfully determine structures of drosocin-stalled ribosomal complexes. Toeprinting was used to monitor the position of ribosomes on the MLIFstop-mRNA in the presence of increasing concentrations of synthetic PamB2 (Extended Data Fig. 2). […] (Extended Data Fig. 2). […] (Extended Data Fig. 2).
Toeprinting reactions for Fig. 4b and Extended Data Fig. 2 were performed as described previously. Briefly, reactions were performed with 6 μl of PURExpress in vitro protein synthesis system (New England Biolabs). The reactions were carried out with different primers and templates (Supplementary Tables 2 and 3). The reactions contained 340 ng of the respective mRNA template and were supplemented with the different compounds as specified. The translation reactions were incubated for 30 min at 37 °C. […]

As to `CN(CC(=O)O)NC(=O)C[C@H](N)C[C@@H](O)CN` [negamycin, reference compound], in assay [1], the “EF-G dependent translocation (toeprint shift)” value is “little to no shift in the toeprint band”. Besides, in assay [2], the interference with translocation result was “interfere with translocation”. Consider `C=C[C@]1(C)C[C@@H](OC(=O)CS[C@@H]2C[C@H]3CC[C@@H](C2)N3C)[C@]2(C)[C@H](C)CC[C@]3(CCC(=O)[C@H]32)[C@@H](C)[C@@H]1O` [retapamulin, reference compound], for which, in assay [3] (50 or 100 µM), the “ribosome stalling on wildtype ErmBL mRNA” value was “traps ribosomes on the AUG start codon”. By IC50 is commonly meant the concentration that inhibits the measured activity by half. For `CN(C)[C@@H]1C(O)=C(C(N)=O)C(=O)[C@@]2(O)C(O)=C3C(=O)c4c(O)cccc4[C@@](C)(O)[C@H]3C[C@@H]12` [tetracycline, reference compound], the IC50 in assay [4] was 10 µM. With `O=C(N[C@H](CO)[C@H](O)c1ccc([N+](=O)[O-])cc1)C(Cl)Cl` [chloramphenicol, reference compound], in assay [4], the half-maximal inhibitory concentration (IC50) is 1 µM. Take `CC[C@H]1OC(=O)[C@H](C)[C@@H](O[C@H]2C[C@@](C)(OC)[C@@H](O)[C@H](C)O2)[C@H](C)[C@@H](O[C@@H]2O[C@H](C)C[C@H](N(C)C)[C@H]2O)[C@](C)(O)C[C@@H](C)C(=O)[C@H](C)[C@@H](O)[C@]1(C)O` [erythromycin, reference compound]: in assay [3] (50 µM), the “ribosome stalling on wildtype ErmBL mRNA” value is “accumulation of ribosomes stalled with the tenth CAU codon (encoding Asp) in the P-site”. For the same molecule, the IC50 in assay [4] was 0.75 µM.

With `C/C(=C\C(=O)OCCCCCCCCC(=O)O)C[C@@H]1OC[C@H](C[C@@H]2O[C@H]2[C@@H](C)[C@H](C)O)[C@@H](O)[C@H]1O` [mupirocin, reference compound], in assay [3] (Ile-tRNA synthetase inhibitor added to all reactions, concentration not given), the “ribosome trapping at twelfth codon (AUC, Ile) of ErmBL mRNA” value is “become trapped”. On to thiostrepton [reference compound], for which the “ribosome stalling on MLIFstop-mRNA” value in assay [5] is “a single strong band is observed that corresponds to ribosomes trapped on the AUG start codon”.
